Test results as given in patent US8927009B2 (AbbVie Inc., priority 2009, dated 2015).

Columns and labels:
Bcl-XL = Bcl-XL (Homo sapiens, UniProt Q07817); settings: cited from earlier work
Bcl-w = target: T1, Bcl-w (Homo sapiens, UniProt Q92843); settings: cited from earlier work
T1 sequence (Q92843 1-193): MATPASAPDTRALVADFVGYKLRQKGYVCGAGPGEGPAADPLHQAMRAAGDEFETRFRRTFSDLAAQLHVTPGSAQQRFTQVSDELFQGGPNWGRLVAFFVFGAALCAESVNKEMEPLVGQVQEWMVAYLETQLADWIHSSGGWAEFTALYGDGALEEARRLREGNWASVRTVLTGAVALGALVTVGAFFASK

Bcl-2 = Bcl-2 (Homo sapiens, UniProt P10415); settings: cited from earlier work
[1] = Solubility in lipid solvents and solvent mixtures in ambient conditions; assay type: physicochemical; settings: listed as Parent (Form I)
Method: Solubility of ABT-263 parent (free base, crystalline Form I) and ABT-263 bis-HCl salt was tested in a variety of lipid solvents and solvent mixtures in ambient conditions. Trademarked solvents in this study, unless identified hereinabove, are as follows (substantially equivalent products from other manufacturers can be substituted if available): • Miglyol 810™ of Sasol: caprylic/capric triglycerides; • Capmul MCM™ of Abitec: glyceryl caprylate/caprate; • Captex 300™ of Abitec: caprylic/capric triglycerides; • Labrafil M 2125 CS™ of Gattefossé: polyoxyethylene glyceryl linoleate; • Tween 20™ of Uniqema: polysorbate 20; • Labrasol™ of Gattefossé: polyoxyethylene glyceryl caprylate/caprate; • Cremophor RH40™: polyoxyethyene (40) hydrogenated castor oil. “PE-91” is Phosal 53 MCT™+ethanol, 9:1 by volume. “LOT-343” is Labrafil M 1944 CS™+oleic acid+Tween 80™, 30:40:30 by weight.
In some cases, indicated in Table 4 by an asterisk (*), solubility was initially high but precipitation occurred upon standing.

[2] = Drug solubility in ternary excipient systems; assay type: physicochemical; parameters: key: ✓: vehicle miscible, or drug fully dissolved in vehicle; x: vehicle immiscible or miscible but turbid, or residual solids present (due to undissolved drug or precipitation); settings: 10% salt, 20% free base, listed as free base
Text: Solvents evaluated included Labrafil M 1944 CS™, Imwitor 742™, oleic acid, Capmul PG-8™, Capmul PG-12™, Lauroglycol 90™ (propylene glycol monolaurate, available from Gattefossé) and Phosal 53 MCT™. Surfactants evaluated included Tween 80™, Cremophor RH40™, Gelucire 44/14™ (polyoxyethylene glyceryl laurate, available from Gattefossé) and Labrasol™.

Bcl-XL, sequence (Q07817 whole entry): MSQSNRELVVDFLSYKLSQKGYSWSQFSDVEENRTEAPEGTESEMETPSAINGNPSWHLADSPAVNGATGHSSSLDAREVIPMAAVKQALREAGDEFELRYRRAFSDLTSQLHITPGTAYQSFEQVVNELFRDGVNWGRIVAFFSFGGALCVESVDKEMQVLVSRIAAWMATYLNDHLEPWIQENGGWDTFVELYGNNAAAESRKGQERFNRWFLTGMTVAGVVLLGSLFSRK
Bcl-2, sequence (P10415 whole entry): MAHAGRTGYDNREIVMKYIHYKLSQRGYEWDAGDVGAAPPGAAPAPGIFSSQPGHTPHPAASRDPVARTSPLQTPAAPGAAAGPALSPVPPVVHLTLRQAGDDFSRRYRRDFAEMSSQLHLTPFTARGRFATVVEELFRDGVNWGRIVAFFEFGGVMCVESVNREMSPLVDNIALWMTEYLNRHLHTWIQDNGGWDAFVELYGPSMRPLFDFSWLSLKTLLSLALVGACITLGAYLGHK

For CN(C)CC[C@H](CSc1ccccc1)Nc1ccc(S(=O)(=O)NC(=O)c2ccc(N3CCN(Cc4ccccc4-c4ccc(Cl)cc4)CC3)cc2)cc1[N+](=O)[O-] [ABT-737], the binding affinity (Bcl-XL) is listed as under 1 nM, the binding affinity (Bcl-w) is listed as under 1 nM and the binding affinity (Bcl-2) is listed as under 1 nM.
Work on CC1(C)CCC(c2ccc(Cl)cc2)=C(CN2CCN(c3ccc(C(=O)NS(=O)(=O)c4ccc(N[C@H](CCN5CCOCC5)CSc5ccccc5)c(S(=O)(=O)C(F)(F)F)c4)cc3)CC2)C1 [ABT-263] yielded a Solubility ([1]; in Labrafil M 2125 CS, ambient conditions) of over 290 mg/g, a Solubility ([1]; in PE-91 (Phosal 53 MCT + ethanol 9:1 by volume), ambient conditions) of over 250 mg/g and a Solubility ([1]; in PEG-400, ambient conditions) of over 200 mg/g. The Solubility ([1]; in corn oil, ambient conditions) was under 86 mg/g, the Solubility ([1]; in sesame oil, ambient conditions) was under 75 mg/g and the ABT-263 solubility ([2]; Imwitor 742/Labrafil M 1944 CS/Cremophor RH40 (ILC) 40:40:20 % by weight) was “x”. For the same molecule, the ABT-263 solubility ([2]; Imwitor 742/Labrafil M 1944 CS/Cremophor RH40 (ILC) 50:30:20 % by weight) was “x”, the ABT-263 solubility ([2]; Imwitor 742/Labrafil M 1944 CS/Cremophor RH40 (ILC) 50:40:10 % by weight) was “x” and the ABT-263 solubility ([2]; Imwitor 742/Labrafil M 1944 CS/Cremophor RH40 (ILC) 60:30:10 % by weight) was “x”. For the same molecule, the ABT-263 solubility ([2]; Imwitor 742/Labrafil M 1944 CS/Labrasol (ILL) 40:40:20 % by weight) was “x”, the ABT-263 solubility ([2]; Imwitor 742/Labrafil M 1944 CS/Labrasol (ILL) 50:30:20 % by weight) was “x” and the ABT-263 solubility ([2]; Imwitor 742/Labrafil M 1944 CS/Labrasol (ILL) 50:40:10 % by weight) was “x”. The ABT-263 solubility ([2]; Imwitor 742/Labrafil M 1944 CS/Labrasol (ILL) 60:30:10 % by weight) was “x”, the ABT-263 solubility ([2]; Labrafil M 1944 CS/Imwitor 742/Tween 80 (LIT) 30:40:30 % by weight) was “x” and the ABT-263 solubility ([2]; Labrafil M 1944 CS/Imwitor 742/Tween 80 (LIT) 30:45:25 % by weight) was “x”. For the same molecule, the ABT-263 solubility ([2]; Labrafil M 1944 CS/Imwitor 742/Tween 80 (LIT) 40:30:30 % by weight) was “x”, the ABT-263 solubility ([2]; Labrafil M 1944 CS/Imwitor 742/Tween 80 (LIT) 40:35:25 % by weight) was “x” and the ABT-263 solubility ([2]; Lauroglycol 90/Labrafil M 1944 CS/Labrasol (LLL) 50:40:10 % by weight) was “x”. The ABT-263 solubility ([2]; Lauroglycol 90/Labrafil M 1944 CS/Labrasol (LLL) 60:30:10 % by weight) was “x”.
